Test results reported in ChEMBL document CHEMBL5726263, “Pyrazolopyrimidinyl inhibitors of ubiquitin-activating enzyme” (2017).
pIC50: −log10 of the molar value.

Target: Ubiquitin-conjugating enzyme E2 E1 (Homo sapiens, UniProt P51965)
Test: HTRF Assay : The UAE enzymatic reaction totals 50 μL and contains 50 mmol HEPES (pH 7.5), 0.05% BSA, 2.5 mM MgCl2, 0.1 uM ATP, 8 nM GST-Ubc-2, 35 nM flag-ubiquitin, 1 nM recombinant human UAE or mouse UAE. Compounds for this hUAE 1050 assay are tested at 10 point 3-fold dilution. The top concentration for this assay is 1 μM. Each compound is ordered in duplicate on the same plate.

Sequence of Ubiquitin-conjugating enzyme E2 E1 (P51965 whole entry): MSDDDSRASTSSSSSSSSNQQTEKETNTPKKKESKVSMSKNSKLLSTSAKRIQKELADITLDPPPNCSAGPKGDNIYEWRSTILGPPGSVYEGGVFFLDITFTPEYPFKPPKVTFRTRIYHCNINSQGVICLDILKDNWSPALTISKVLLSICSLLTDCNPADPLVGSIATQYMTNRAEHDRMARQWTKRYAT

## NS(=O)(=O)OC[C@H]1C[C@@H](Nc2ccnc3cc(-c4cccc5ccccc45)nn23)[C@H](O)[C@@H]1O (racemic)
  pIC50: > 8.00
